Experimental findings from the NIST ThermoML archive (doi:10.1016/j.fluid.2015.06.015) are described below.

± gives the expanded uncertainty stated by the source.

Experiment in the first data set: not given
As to conditions: Crystal 1; DTA.
For the molecule `CCCCCCCCCCCCO` [dodecan-1-ol], the Normal melting temperature was 24.38 ± 0.39 °C.
In the case of `CCCCCCCCCCCCCC(=O)O` [tetradecanoic acid], the Normal melting temperature turned out to be 55.78 ± 0.5 °C.
`CCCCCCCCCC(=O)O` [decanoic acid]: the Normal melting temperature worked out at 32.33 ± 0.41 °C.
The same measure, in the same setting: then `CCCCCCCCCCO` [decan-1-ol], with 6.96 ± 0.56 °C.
For the molecule `CCCCCCCCCCCC(=O)O` [dodecanoic acid], the Normal melting temperature came out at 45.33 ± 1 °C.
On to `CCCCCCCC/C=C\CCCCCCCC(=O)OCC(COC(=O)CCCCCCC/C=C\CCCCCCCC)OC(=O)CCCCCCC/C=C\CCCCCCCC` [1,2,3-tri(cis-9-octadecenoyl)glycerol], for which the Normal melting temperature was 5.42 ± 0.39 °C.
As for `CCCCCCCCCCCCCCO` [1-tetradecanol], the Normal melting temperature stood at 38.0 ± 0.53 °C.

The data set is the same for the next values; noted with them: Crystal 2; DTA.
As to `CCCCCCCCCCCCO` [dodecan-1-ol], the Triple point temperature worked out at 296.95 ± 0.39 K.
Still for that read-out and setting: the result for `CCCCCCCCCCCCCC(=O)O` [tetradecanoic acid] reads 327.95 ± 0.7 K; that for `CCCCCCCCCCO` [decan-1-ol], 275.94 ± 0.68 K; that for `CCCCCCCCCCCC(=O)O` [dodecanoic acid], 317.91 ± 0.46 K.
For the molecule `CCCCCCCC/C=C\CCCCCCCC(=O)OCC(COC(=O)CCCCCCC/C=C\CCCCCCCC)OC(=O)CCCCCCC/C=C\CCCCCCCC` [1,2,3-tri(cis-9-octadecenoyl)glycerol], the Triple point temperature came to 258.99 ± 0.66 K.
As for `CCCCCCCCCCCCCCO` [1-tetradecanol], the Triple point temperature was 310.06 ± 0.78 K.

Staying with this data set, now noted: Crystal 3; DTA.
As to `CCCCCCCCCCCCO` [dodecan-1-ol], the Triple point temperature is 291.04 ± 0.7 K.

Another data set is described as follows: Molar enthalpy of transition or fusion. To be noted: Crystal 1; DSC.
For `CCCCCCCCCCCCO` [dodecan-1-ol], the “Molar enthalpy of transition or fusion” value is 9.19 ± 0.335 kcal/mol.
In the case of `CCCCCCCCCCCCCC(=O)O` [tetradecanoic acid], the “Molar enthalpy of transition or fusion” value amounted to 10.5 ± 0.222 kcal/mol.
Regarding `CCCCCCCCCC(=O)O` [decanoic acid], the “Molar enthalpy of transition or fusion” value stood at 6.51 ± 0.217 kcal/mol.
On to `CCCCCCCCCCO` [decan-1-ol], for which the “Molar enthalpy of transition or fusion” value stood at 7.09 ± 0.43 kcal/mol.
With `CCCCCCCCCCCC(=O)O` [dodecanoic acid], the “Molar enthalpy of transition or fusion” value turned out to be 8.27 ± 0.502 kcal/mol.
For the molecule `CCCCCCCC/C=C\CCCCCCCC(=O)OCC(COC(=O)CCCCCCC/C=C\CCCCCCCC)OC(=O)CCCCCCC/C=C\CCCCCCCC` [1,2,3-tri(cis-9-octadecenoyl)glycerol], the “Molar enthalpy of transition or fusion” value worked out at 27.4 ± 0.598 kcal/mol.
As for `CCCCCCCCCCCCCCO` [1-tetradecanol], the “Molar enthalpy of transition or fusion” value was 10.9 ± 0.454 kcal/mol.
